Measurements from US20200199102A1, “COMPOUNDS THAT PARTICIPATE IN COOPERATIVE BINDING AND USES THEREOF” (Revolution Medicines, Inc., priority 2017, published 2020).
pIC50: −log10 of the molar value. Where a SMILES comes first, the peptide text is derived from it. [ ]: non-standard residue; d: D form. MeBmt = C/C=C/C[C@@H](C)[C@@H](O)[C@H](NC)C(=O)O; NMeY = CN[C@@H](Cc1ccc(O)cc1)C(=O)O; NMeF = CN[C@@H](Cc1ccccc1)C(=O)O; NMeI = CC[C@H](C)[C@H](NC)C(=O)O; NMeT = CN[C@H](C(=O)O)[C@@H](C)O; NMeL = CN[C@@H](CC(C)C)C(=O)O; dNMeV = CN[C@@H](C(=O)O)C(C)C; NMeNle = CCCC[C@H](NC)C(=O)O; Tle = CC(C)(C)[C@H](N)C(=O)O; NMeNva = CCC[C@H](NC)C(=O)O; NMeV = CN[C@H](C(=O)O)C(C)C; NMeA = CN[C@@H](C)C(=O)O; dNMeA = CN[C@H](C)C(=O)O; Abu = CC[C@H](N)C(=O)O; Sar = CNCC(=O)O

Target: T1, Cyclophilin A (Homo sapiens, UniProt P62937)
T1 construct: made in house
Test: AlphaLISA inhibition of binding of biotinylated Cyclosporin A to FLAG tagged Cyclophilin A
Details: for % signal: AlphaLISA signal; for % signal / % inhibition of CsA binding to Cyclophilin A: test concentration not given; for pIC50: read-out: IC50 value of CsA binding to Cyclophilin A
Method in brief: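 Inhibition of biotin-CsA binding to FLAG-tagged Cyclophilin A read by AlphaLISA (ex 680, em 615 nm). Working stocks were 6 nM biotinylated CsA and 25 nM FLAG-CypA; beads and compound were combined first for 30 min, then protein added for 60 min, all at room temperature in the dark, with DMSO and cyclosporin A controls.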

T1 sequence (P62937 whole entry, species assumed): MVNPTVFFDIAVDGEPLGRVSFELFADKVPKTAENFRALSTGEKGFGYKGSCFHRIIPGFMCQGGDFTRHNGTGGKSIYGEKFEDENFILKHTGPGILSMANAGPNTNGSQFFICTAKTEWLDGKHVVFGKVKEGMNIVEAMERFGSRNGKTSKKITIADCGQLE

Row | % signal [%] | pIC50 | % inhibition of CsA binding to Cyclophilin A [%] | Compound
1 | 52.68 | > 5.70 | 47.32 | C/C=C/C[C@@H](C)[C@@H](O)[C@H]1C(=O)N[C@@H](CC)C(=O)N(C)CC(=O)N(C)[C@@H](Cc2ccccc2)C(=O)N[C@@H](CC(C)C)C(=O)N(C)[C@@H](CC(C)C)C(=O)N[C@@H](CC(C)C)C(=O)N[C@H](C)C(=O)N(C)[C@@H](CC(C)C)C(=O)N(C)[C@@H](CC(C)C)C(=O)N(C)[C@@H](C(C)C)C(=O)N1C [Compound C60] (cyclo([MeBmt][Abu][Sar][NMeF]L[NMeL]L[dA][NMeL][NMeL][NMeV]))
2 | 14.38 | > 5.70 | 85.62 | C/C=C/C[C@@H](C)[C@@H](O)[C@H]1C(=O)N[C@@H](CC)C(=O)N(C)CC(=O)N(C)CC(=O)N[C@@H](CC(C)C)C(=O)N(C)[C@@H](CC(C)C)C(=O)N[C@@H](CC(C)C)C(=O)N[C@H](C)C(=O)N(C)[C@@H](CC(C)C)C(=O)N(C)[C@@H](CC(C)C)C(=O)N(C)[C@@H](C(C)C)C(=O)N1C [Compound C61] (cyclo([MeBmt][Abu][Sar][Sar]L[NMeL]L[dA][NMeL][NMeL][NMeV]))
3 | 27.12 | > 5.70 | 72.88 | C/C=C/C[C@@H](C)[C@@H](O)[C@H]1C(=O)N[C@@H](CC)C(=O)N(C)CC(=O)N(C)[C@@H](CC(C)C)C(=O)N[C@@H](CC(C)C)C(=O)N(C)[C@@H](CC(C)C)C(=O)N[C@@H](CC(C)C)C(=O)N[C@H](C)C(=O)N(C)[C@@H](CC(C)C)C(=O)N(C)[C@@H](CC(C)C)C(=O)N(C)[C@@H](C(C)C)C(=O)N1C [Compound C62] (cyclo([MeBmt][Abu][Sar][NMeL]L[NMeL]L[dA][NMeL][NMeL][NMeV]))
4 | 4.64 | > 5.70 | 95.36 | C/C=C/C[C@@H](C)[C@@H](O)[C@H]1C(=O)N[C@@H](CC)C(=O)N(C)CC(=O)N(C)[C@@H]([C@@H](C)O)C(=O)N[C@@H](CC(C)C)C(=O)N(C)[C@@H](CC(C)C)C(=O)N[C@@H](CC(C)C)C(=O)N[C@H](C)C(=O)N(C)[C@@H](CC(C)C)C(=O)N(C)[C@@H](CC(C)C)C(=O)N(C)[C@@H](C(C)C)C(=O)N1C [Compound C63] (cyclo([MeBmt][Abu][Sar][NMeT]L[NMeL]L[dA][NMeL][NMeL][NMeV]))
5 | 28.50 | > 5.70 | 71.50 | C/C=C/C[C@@H](C)[C@@H](O)[C@H]1C(=O)N[C@@H](CC)C(=O)N(C)CC(=O)N(C)[C@@H](Cc2ccc(O)cc2)C(=O)N[C@@H](CC(C)C)C(=O)N(C)[C@@H](CC(C)C)C(=O)N[C@@H](CC(C)C)C(=O)N[C@H](C)C(=O)N(C)[C@@H](CC(C)C)C(=O)N(C)[C@@H](CC(C)C)C(=O)N(C)[C@@H](C(C)C)C(=O)N1C [Compound C64] (cyclo([MeBmt][Abu][Sar][NMeY]L[NMeL]L[dA][NMeL][NMeL][NMeV]))
6 | 0.27 | > 5.70 | 99.73 | C/C=C/C[C@@H](C)[C@@H](O)[C@H]1C(=O)N[C@@H](CC)C(=O)N(C)CC(=O)N(C)[C@@H](C(C)C)C(=O)N[C@@H](CC(C)C)C(=O)N(C)[C@@H](CC(C)C)C(=O)N[C@@H](CC(C)C)C(=O)N[C@H](C)C(=O)N(C)[C@@H](CC(C)C)C(=O)N(C)[C@@H](CC(C)C)C(=O)N(C)[C@@H](C(C)C)C(=O)N1C [Compound C65] (cyclo([MeBmt][Abu][Sar][NMeV]L[NMeL]L[dA][NMeL][NMeL][NMeV]))
7 | 10.95 | > 5.70 | 89.05 | C/C=C/C[C@@H](C)[C@@H](O)[C@H]1C(=O)N[C@@H](CC)C(=O)N(C)CC(=O)N(C)[C@@H](CCC)C(=O)N[C@@H](CC(C)C)C(=O)N(C)[C@@H](CC(C)C)C(=O)N[C@@H](CC(C)C)C(=O)N[C@H](C)C(=O)N(C)[C@@H](CC(C)C)C(=O)N(C)[C@@H](CC(C)C)C(=O)N(C)[C@@H](C(C)C)C(=O)N1C [Compound C66] (cyclo([MeBmt][Abu][Sar][NMeNva]L[NMeL]L[dA][NMeL][NMeL][NMeV]))
8 | 40.86 | > 5.70 | 59.14 | C/C=C/C[C@@H](C)[C@@H](O)[C@H]1C(=O)N[C@@H](CC)C(=O)N(C)CC(=O)N(C)[C@H](C(C)C)C(=O)N[C@@H](CC(C)C)C(=O)N(C)[C@@H](CC(C)C)C(=O)N[C@@H](CC(C)C)C(=O)N[C@H](C)C(=O)N(C)[C@@H](CC(C)C)C(=O)N(C)[C@@H](CC(C)C)C(=O)N(C)[C@@H](C(C)C)C(=O)N1C [Compound C67] (cyclo([MeBmt][Abu][Sar][dNMeV]L[NMeL]L[dA][NMeL][NMeL][NMeV]))
9 | 20.46 | > 5.70 | 79.54 | C/C=C/C[C@@H](C)[C@@H](O)[C@H]1C(=O)N[C@@H](CC)C(=O)N(C)CC(=O)N(C)[C@@H](CCCC)C(=O)N[C@@H](CC(C)C)C(=O)N(C)[C@@H](CC(C)C)C(=O)N[C@@H](CC(C)C)C(=O)N[C@H](C)C(=O)N(C)[C@@H](CC(C)C)C(=O)N(C)[C@@H](CC(C)C)C(=O)N(C)[C@@H](C(C)C)C(=O)N1C [Compound C68] (cyclo([MeBmt][Abu][Sar][NMeNle]L[NMeL]L[dA][NMeL][NMeL][NMeV]))
10 | 0.03 | > 5.70 | 99.97 | C/C=C/C[C@@H](C)[C@@H](O)[C@H]1C(=O)N[C@@H](CC)C(=O)N(C)CC(=O)N(C)[C@@H]([C@@H](C)CC)C(=O)N[C@@H](C(C)(C)C)C(=O)N(C)[C@@H](C)C(=O)N[C@@H](CC(C)C)C(=O)N[C@H](C)C(=O)N(C)[C@@H](CC(C)C)C(=O)N(C)[C@@H](CC(C)C)C(=O)N(C)[C@@H](C(C)C)C(=O)N1C [Compound C69] (cyclo([MeBmt][Abu][Sar][NMeI][Tle][NMeA]L[dA][NMeL][NMeL][NMeV]))
11 | 0.05 | > 5.70 | 99.95 | C/C=C/C[C@@H](C)[C@@H](O)[C@H]1C(=O)N[C@@H](CC)C(=O)N(C)CC(=O)N(C)[C@@H](C)C(=O)N[C@@H](C(C)(C)C)C(=O)N(C)[C@@H](C)C(=O)N[C@@H](CC(C)C)C(=O)N[C@H](C)C(=O)N(C)[C@@H](CC(C)C)C(=O)N(C)[C@@H](CC(C)C)C(=O)N(C)[C@@H](C(C)C)C(=O)N1C [Compound C70] (cyclo([MeBmt][Abu][Sar][NMeA][Tle][NMeA]L[dA][NMeL][NMeL][NMeV]))
12 | −0.05 | > 5.70 | 100.05 | C/C=C/C[C@@H](C)[C@@H](O)[C@H]1C(=O)N[C@@H](CC)C(=O)N(C)CC(=O)N(C)[C@H](C)C(=O)N[C@@H](C(C)(C)C)C(=O)N(C)[C@@H](C)C(=O)N[C@@H](CC(C)C)C(=O)N[C@H](C)C(=O)N(C)[C@@H](CC(C)C)C(=O)N(C)[C@@H](CC(C)C)C(=O)N(C)[C@@H](C(C)C)C(=O)N1C [Compound C71] (cyclo([MeBmt][Abu][Sar][dNMeA][Tle][NMeA]L[dA][NMeL][NMeL][NMeV]))
13 | 2.78 | > 5.70 | 97.22 | C/C=C/C[C@@H](C)[C@@H](O)[C@H]1C(=O)N[C@@H](CC)C(=O)N(C)CC(=O)N(C)[C@@H](Cc2ccccc2)C(=O)N[C@@H](C(C)(C)C)C(=O)N(C)[C@@H](C)C(=O)N[C@@H](CC(C)C)C(=O)N[C@H](C)C(=O)N(C)[C@@H](CC(C)C)C(=O)N(C)[C@@H](CC(C)C)C(=O)N(C)[C@@H](C(C)C)C(=O)N1C [Compound C72] (cyclo([MeBmt][Abu][Sar][NMeF][Tle][NMeA]L[dA][NMeL][NMeL][NMeV]))
14 | 0.01 | > 5.70 | 99.99 | C/C=C/C[C@@H](C)[C@@H](O)[C@H]1C(=O)N[C@@H](CC)C(=O)N(C)CC(=O)N(C)CC(=O)N[C@@H](C(C)(C)C)C(=O)N(C)[C@@H](C)C(=O)N[C@@H](CC(C)C)C(=O)N[C@H](C)C(=O)N(C)[C@@H](CC(C)C)C(=O)N(C)[C@@H](CC(C)C)C(=O)N(C)[C@@H](C(C)C)C(=O)N1C [Compound C73] (cyclo([MeBmt][Abu][Sar][Sar][Tle][NMeA]L[dA][NMeL][NMeL][NMeV]))
15 | 4.92 | > 5.70 | 95.08 | C/C=C/C[C@@H](C)[C@@H](O)[C@H]1C(=O)N[C@@H](CC)C(=O)N(C)CC(=O)N(C)[C@@H](CC(C)C)C(=O)N[C@@H](C(C)(C)C)C(=O)N(C)[C@@H](C)C(=O)N[C@@H](CC(C)C)C(=O)N[C@H](C)C(=O)N(C)[C@@H](CC(C)C)C(=O)N(C)[C@@H](CC(C)C)C(=O)N(C)[C@@H](C(C)C)C(=O)N1C [Compound C74] (cyclo([MeBmt][Abu][Sar][NMeL][Tle][NMeA]L[dA][NMeL][NMeL][NMeV]))
16 | 3.88 | > 5.70 | – | C/C=C/C[C@@H](C)[C@@H](O)[C@H]1C(=O)N[C@@H](CC)C(=O)N(C)CC(=O)N(C)[C@@H]([C@@H](C)O)C(=O)N[C@@H](C(C)(C)C)C(=O)N(C)[C@@H](C)C(=O)N[C@@H](CC(C)C)C(=O)N[C@H](C)C(=O)N(C)[C@@H](CC(C)C)C(=O)N(C)[C@@H](CC(C)C)C(=O)N(C)[C@@H](C(C)C)C(=O)N1C [Compound C75] (cyclo([MeBmt][Abu][Sar][NMeT][Tle][NMeA]L[dA][NMeL][NMeL][NMeV]))
17 | 5.09 | > 5.70 | 94.91 | C/C=C/C[C@@H](C)[C@@H](O)[C@H]1C(=O)N[C@@H](CC)C(=O)N(C)CC(=O)N(C)[C@@H](Cc2ccc(O)cc2)C(=O)N[C@@H](C(C)(C)C)C(=O)N(C)[C@@H](C)C(=O)N[C@@H](CC(C)C)C(=O)N[C@H](C)C(=O)N(C)[C@@H](CC(C)C)C(=O)N(C)[C@@H](CC(C)C)C(=O)N(C)[C@@H](C(C)C)C(=O)N1C [Compound C76] (cyclo([MeBmt][Abu][Sar][NMeY][Tle][NMeA]L[dA][NMeL][NMeL][NMeV]))
